EC50 and IC50 data for four compounds are collected here from patent US20160355530A1, “HEPATITIS C INHIBITORS AND USES THEREOF” (AbbVie Inc., priority 2010, published 2016).

pEC50, pIC50: −log10 of the molar value. Read-outs that look alike come from different tables or passages of the source.

Assay [1] concerns HCV 1b-BB7 subgenomic replicon. Briefly: microbe, parasite or virus in culture. The format is cell-based, HCV genotype 1b. The note with it: Hepatitis C virus, stable replicon. Background: In antiviral work, replicon cells carry a viral genome segment that copies itself.
In assay [2] the test system is chimeric replicon with genotype 2b NS5B. The assay is described as follows: microbe, parasite or virus in culture. As to conditions: Hepatitis C virus, read-out: 2b chimera 5% FBS EC50. In kind it is cell-based, HCV genotype 2b.
Assay [3] has as its system chimeric replicon with 2a-J6CF-derived NS5B. The assay is described as follows: microbe, parasite or virus in culture. The format is cell-based, HCV genotype 2a. As to conditions: Hepatitis C virus, read-out: 2a chimera 5% FBS EC50.
In assay [4] the target is T1, HCV NS5B polymerase 1b BK strain (Hepatitis C virus genotype 1b, UniProt P26663).
T1 construct: six-histidine tag; made in house; host or cells: E. coli
The assay is described as follows: HCV NS5B polymerase enzymatic inhibition assay, strain 1b BK. The format is biochemical. As to conditions: enzyme, strain 1b BK; read-out: HCV Polymerase Strain 1b BK IC50. The essentials:
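Recombinant NS5B (residues 1–570, His-tagged, E. coli-expressed) copied 5 nM of a 2.1 kb HCV 1b negative-strand 3′-end RNA template with 20 μM CTP, 20 μM ATP and 0.284 μM [3H]UTP for 3 h at 30 °C. Spermine-precipitated RNA was filter-captured and counted, and IC50 was fitted by nonlinear regression.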

Assay [5] has as its system HCV 1b-Con1 subgenomic replicon. The assay is described as follows: Stable replicon cell culture assay (luciferase), 1b-Con1; 5% FBS, optionally 40% human plasma. The note with it: Hepatitis C virus. In kind it is cell-based, HCV genotype 1b.
Where [6] appears, read: strain 1b BB7, 5% FBS + 40% human plasma, read-out: 1b BB7 5% FBS + 40% Human Plasma EC50.
Where [7] appears, read: strain 1b BB7, 5% FBS, no human plasma, read-out: 1b BB7 5% FBS EC50.
[8] abbreviates: strain 1b BB7, 5% FBS, read-out: 1b BB7 5% FBS EC50.
The mark [9] stands for this setting: strain 1b Con1, 5% FBS + 40% human plasma, read-out: 1b Con1 5% FBS + 40% Human Plasma EC50.
The mark [10] stands for this setting: strain 1b Con1, 5% FBS, no human plasma, read-out: 1b Con1 5% FBS EC50.
[11] abbreviates: strain 1b Con1, 5% FBS, read-out: 1b Con1 5% FBS EC50.

T1 sequence (P26663 2420-2989): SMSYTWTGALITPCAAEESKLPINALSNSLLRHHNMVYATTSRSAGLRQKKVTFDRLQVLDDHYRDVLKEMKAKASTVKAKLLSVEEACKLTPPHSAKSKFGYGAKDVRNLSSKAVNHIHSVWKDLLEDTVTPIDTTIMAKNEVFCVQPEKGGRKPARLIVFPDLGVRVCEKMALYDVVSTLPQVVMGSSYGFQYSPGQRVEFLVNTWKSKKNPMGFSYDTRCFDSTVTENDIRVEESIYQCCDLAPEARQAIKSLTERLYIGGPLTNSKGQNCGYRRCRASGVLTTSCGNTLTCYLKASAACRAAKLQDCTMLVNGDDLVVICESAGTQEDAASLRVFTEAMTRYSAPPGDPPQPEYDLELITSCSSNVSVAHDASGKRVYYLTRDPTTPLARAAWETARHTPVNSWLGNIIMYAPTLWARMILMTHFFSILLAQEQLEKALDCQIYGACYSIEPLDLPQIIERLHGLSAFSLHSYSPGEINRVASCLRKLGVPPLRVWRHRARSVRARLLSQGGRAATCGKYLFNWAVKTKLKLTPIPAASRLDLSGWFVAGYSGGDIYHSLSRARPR

As to `CS(=O)(=O)N(CCO)c1cc2oc(-c3ccc(F)cc3)c(-c3ncc[nH]3)c2cc1C1CC1` [Example 109, N-[5-cyclopropyl-2-(4-fluorophenyl)-3-(1H-imidazol-2-yl)-1-benzofuran-6-yl]-N-(2-hydroxyethyl)methanesulfonamide], the pEC50 (in general, the negative decadic logarithm of the EC50, by convention in mol/L) is 6.74 in assay [1] (setting [6]); 7.90 in assay [1] (setting [7]); 7.90 in assay [1] (setting [8]); 6.92 in assay [2]; 6.94 in assay [3]. Moreover, the pIC50 (in general, the IC50 on a negative log10 scale, so that one unit is a factor of ten) in assay [4] was 7.21.
Take `CS(=O)(=O)CCCCN(c1cc2oc(-c3ccc(Nc4ccccc4)cc3)c(-c3ncc[nH]3)c2cc1C1CC1)S(C)(=O)=O` [Example 169, N-[2-(4-anilinophenyl)-5-cyclopropyl-3-(1H-imidazol-2-yl)-1-benzofuran-6-yl]-N-[4-(methylsulfonyl)butyl]methanesulfonamide]: the pEC50 is 7.91 in assay [2]; 7.77 in assay [3]; 7.46 in assay [5] (setting [9]); 8.30 in assay [5] (setting [10]); 8.35 in assay [5] (setting [11]). Further, the pIC50 in assay [4] was 7.41.
As for `CS(=O)(=O)N(CCO)c1cc2oc(-c3ccc(F)cc3)c(C3=NOCCN3)c2cc1C1CC1` [Example 136, N-[5-cyclopropyl-3-(5,6-dihydro-4H-1,2,4-oxadiazin-3-yl)-2-(4-fluorophenyl)-1-benzofuran-6-yl]-N-(2-hydroxyethyl)methanesulfonamide], the pEC50 in assay [1] (setting [6]) was 6.55; in assay [1] (setting [7]), 7.46; in assay [1] (setting [8]) it was 7.46; in assay [2], 6.37; in assay [3] it was 6.69. In addition, the pIC50 in assay [4] is 6.70.
With `CCCC/C=C/c1ccc(-c2oc3cc(N(CCCCS(C)(=O)=O)S(C)(=O)=O)c(C4CC4)cc3c2-c2ncc[nH]2)cc1` [Example 168, N-[5-cyclopropyl-2-{4-[(1E)-hex-1-en-1-yl]phenyl}-3-(1H-imidazol-2-yl)-1-benzofuran-6-yl]-N-[4-(methylsulfonyl)butyl]methanesulfonamide], the pEC50 in assay [2] is 7.88; in assay [3], 8.22; in assay [5] (setting [9]), 7.61; in assay [5] (setting [10]), 8.47; in assay [5] (setting [11]) it was 8.47. Further, the pIC50 in assay [4] is 7.41.
